Several values for one entry are separate records, joined by “and”; a condition that tells them apart may be missing. Equal entries are not always repeated.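 1) Cells in 96-well plates. 2) Compound, 48 h, 5 concentrations. 3) Linear interpolation between surrounding doses. 4) Unreached endpoint = highest concentration. Here, GI50 denotes the concentration required for 50% inhibition of growth. At the TGI there is no net growth.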
What was measured:
Assay in all cases: DTP human tumour cell line panel, 48 h
[1] = tested on: 786-0 renal
[2] = tested on: MDA-MB-435
[3] = tested on: RXF 393 renal
[4] = tested on: MDA-MB-231 breast
[5] = tested on: OVCAR-4 ovarian
[6] = tested on: SK-MEL-5 melanoma
[7] = tested on: COLO 205 colon
[8] = tested on: OVCAR-5 ovarian
[9] = tested on: HOP-92 NSCLC
[10] = tested on: KM12 colon

Row | Compound | TGI [1] | TGI [2] [µM] | TGI [3] | TGI [4] [µM] | TGI [5] | TGI [6] | TGI [7] | TGI [8] | TGI [9] | TGI [10] | GI50 [8] | GI50 [10] | GI50 [2] [µM] | GI50 [4] [µM] | GI50 [9] [µM]
1 | CC(C)(C)NC(=O)[C@H]1CC[C@H]2[C@@H]3CC=C4NC(=O)CC[C@]4(C)[C@H]3CC[C@]12C | > 100 µM | > 100 | > 100 µM | > 100 | > 100 µM | > 100 µM | > 100 µM | > 100 µM | > 100 µM | > 100 µM | – | – | – | – | –
2 | NC(CSCc1ccccc1)C(=O)O (configuration not stated) | > 100 µM | > 100 | > 100 µM | > 100 | > 100 µM | > 100 µM | > 100 µM | > 100 µM | > 100 µM | > 100 µM | – | – | – | – | –
3 | O=C1/C(=C/c2ccccc2S)N=C(c2ccccc2)N1c1nc2ccc(Sc3ccccc3)cc2[nH]1 | 87.1 µM | 29.7 | > 100 µM | 71.6 | > 100 µM | 38.6 µM | 34.6 µM | > 100 µM | > 100 µM | > 100 µM | – | – | – | – | –
4 | Cc1ccccc1OC(C)C(=O)NN1C(=O)CC(=O)N(c2ccc(Cl)cc2)C1=S (configuration not stated) | > 100 µM | > 100 | 78.3 µM | > 100 | > 100 µM | 74.4 µM | 68.3 µM | > 100 µM | 56.1 µM | > 100 µM | – | – | – | – | –
5 | C=C(Cl)/C(=C\Cl)CCC(Br)C(C)C (configuration not stated) | > 100 µM | > 100 | > 100 µM | 45.4 | 95.5 µM | > 100 µM | > 100 µM | > 100 µM | > 100 µM | > 100 µM | – | – | – | – | –
6 | O=C(Nc1cccc2cnccc12)c1cc2c(cc1Cl)Sc1nccn1S2(=O)=O | 33.1 µM | 34.1 | 24.4 µM | 36.5 | 87.1 µM | 26.2 µM | 30.8 µM | 77.8 µM | 59.4 µM | 21.9 µM | – | – | – | – | –
7 | C[n+]1c(-c2ccccc2)cc2/c(=C\c3ccc([N+](=O)[O-])cc3)c3ccccc3n21 | 18.9 µM | 14.4 | 19.5 µM | 16.1 | > 100 µM | > 19.7 µM | > 100 µM | 54.2 µM | > 41.6 µM | 17.8 µM | – | – | – | – | –
8 | C=C1C(=O)OC2/C=C(\CO)C(OC(C)=O)CC(O)/C(C)=C/C(OC(=O)C(C)CC)C12 (configuration not stated) | 28.8 µM and 52.9 µM | 47.6 | 40 µM and 49.8 µM | 32.7 | 32.5 µM and > 100 µM | 33 µM and 30.9 µM | 28.8 µM and 24.3 µM | > 92.8 µM and 32.2 µM | 35 µM and 63.2 µM | 32.5 µM and > 100 µM | 38.9 µM and 17 µM | 17.5 µM and 35.2 µM | – | – | –
9 | O=C1NCCCc2nonc21 | > 100 µM | > 100 | > 100 µM | > 100 | > 100 µM | > 100 µM | > 100 µM | > 100 µM | > 100 µM | > 100 µM | – | – | – | – | –
10 | CN(C)c1ccc(-c2c(C#N)c(S)n(NS(=O)(=O)c3ccccc3)c(=O)c2C#N)cc1 | 40.6 µM | 92.6 | > 100 µM | > 100 | 74.2 µM | 72.2 µM | > 100 µM | > 100 µM | > 100 µM | 47.7 µM | – | – | – | – | –
11 | CSCCC(NCc1c(O)ccc2c(-c3ccccc3)cc(=O)oc12)C(=O)O (configuration not stated) | > 100 µM | > 100 | > 100 µM | > 100 | > 100 µM | > 100 µM | > 100 µM | > 100 µM | > 100 µM | > 100 µM | – | – | – | – | –
12 | O=C1CCSSCCC(=O)NCCN1 | > 100 µM | > 100 | > 100 µM | > 100 | > 100 µM | > 100 µM | > 100 µM | > 100 µM | > 100 µM | > 100 µM | – | – | – | – | –
13 | C=C1[C@@H](O)C[C@@]23CC[C@@H]4[C@@]5(C)CC[C@@H](OC(C)=O)C(C)(C)[C@@H]5C[C@@H](OC5OC(COC(C)=O)C(O)C(O)C5O)[C@@]4(C)C2=CC[C@H]3[C@H]1C (some centres not stated) | 18.9 µM | 15.3 | 18.7 µM | 21.4 | 21 µM | 12.3 µM | 4.36 µM | 7.08 µM | 20.5 µM | 8.16 µM | – | – | – | – | –
14 | CCN(CC)CCOC(NC(C)=O)(c1ccccc1)c1ccccc1 | > 100 µM | > 100 | > 100 µM | > 100 | > 100 µM | > 100 µM | > 100 µM | > 100 µM | > 100 µM | > 100 µM | – | – | – | – | –
15 | COP(=O)(O)/C=C/C(NC(=O)C(Cl)(Cl)Cl)c1ccccc1 (configuration not stated) | > 100 µM | > 100 | > 100 µM | > 100 | > 100 µM | > 100 µM | > 100 µM | > 100 µM | > 100 µM | > 100 µM | – | – | – | – | –
16 | O=C(O)C1CC(c2ccc(F)cc2)=Nc2ccc(F)cc2S1 (configuration not stated) | > 100 µM | > 100 | > 100 µM | > 100 | > 100 µM | > 100 µM | > 100 µM | > 100 µM | > 100 µM | > 100 µM | – | – | – | – | –
17 | Cc1cc(C)c2c(=O)n(CN3CC4Nc5ccccc5C4C3)sc2n1 (configuration not stated) | 33.8 µM | 42.2 | 40.4 µM | 37.5 | 42.2 µM | > 100 µM | 71.5 µM | 42.4 µM | > 100 µM | > 100 µM | – | – | – | – | –
18 | CCNC(=O)Nc1ccccn1 | > 100 µM | > 100 | > 100 µM | > 100 | > 100 µM | > 100 µM | > 100 µM | > 100 µM | > 100 µM | > 100 µM | – | – | – | – | –
19 | COc1cc2c(cc1OCCCCOc1cc(-c3ccc(F)cc3)nc(C)n1)N=C[C@@H]1CCCN1C2=O | 6.94 µM | 1.42 | 3.22 µM | 5.18 | 2.3 µM | 1.44 µM | 1.17 µM | 10.9 µM | 6.18 µM | 3.67 µM | – | – | – | – | –
20 | CC1(C)O[C@@H]2COC(=O)[C@@H]2O1 | > 100 µM | > 100 | > 100 µM | > 100 | > 100 µM | > 100 µM | > 100 µM | > 100 µM | > 100 µM | > 100 µM | – | – | – | – | –
21 | CCCCn1c2c(n(CCCC)c1=S)-c1c(n(CCCC)c(=S)n1CCCC)S[Se][Se]S2 | > 43.9 µM | 39.1 | 25.4 µM | 7.59 | > 37.4 µM | 19.6 µM | 3.87 µM | 6.72 µM | 9.51 µM | > 53.5 µM | – | – | – | – | –
22 | Cc1cc2c(C)cc(=O)[nH]c2cc1N | > 100 µM | > 100 | > 100 µM | > 100 | > 100 µM | > 100 µM | > 100 µM | > 100 µM | > 100 µM | > 100 µM | – | – | – | – | –
23 | O=C(NC(Cc1c[nH]c2ccccc12)C(=O)O)/C(=C/c1ccccc1O)NC(=O)c1ccccc1 (configuration not stated) | 46.9 µM | > 100 | > 100 µM | 65 | > 100 µM | > 100 µM | > 100 µM | > 100 µM | 75.5 µM | > 100 µM | – | – | – | – | –
24 | CC(C)=C[C@@H]1C[C@H](n2cc(C)c(=O)[nH]c2=O)ON1CCO | > 100 µM | > 100 | > 100 µM | > 100 | > 100 µM | > 100 µM | > 100 µM | > 100 µM | > 100 µM | > 100 µM | – | – | – | – | –
25 | CCCCCCCCCC[C@H](O)[C@H]1CC[C@H]([C@H]2CC[C@H]([C@H](O)CC[C@H](O)CCCCCCC[C@@H](O)CC3=C[C@H](C)OC3=O)O2)O1 | > 100 µM | > 100 | 88 µM | > 100 | > 100 µM | 3.93 µM | 78.5 µM | > 100 µM | > 100 µM | > 100 µM | > 100 µM | 38.1 µM | 40.3 | > 100 | > 100
26 | CCC1=CCC23C(=O)C=CC(=O)C2(C1)C(=O)c1cccc(OC)c1C3=O (configuration not stated) | 24.8 µM | 30.8 | 21 µM | 29.8 | 26.1 µM | 31.5 µM | 28.4 µM | 31.8 µM | 29 µM | 43.6 µM | – | – | – | – | –
27 | O=C1c2ccccc2CN1c1ccc(O)cc1 | > 100 µM | > 100 | > 100 µM | > 100 | > 100 µM | > 100 µM | > 100 µM | > 100 µM | > 100 µM | > 100 µM | – | – | – | – | –
28 | Nc1c2ccccc2nc2c1ccc1ncccc12 | > 100 µM | > 100 | 98.4 µM | 96.1 | 63 µM | > 100 µM | > 100 µM | > 100 µM | > 100 µM | 52.6 µM | – | – | – | – | –
29 | CC(=O)OC[C@]1(C(=O)C(O)c2ccoc2)[C@H](C)CC[C@@]23COC(=O)C2=CCC[C@@H]31 (some centres not stated) | > 10 µM | > 10 | > 10 µM | > 10 | > 10 µM | > 10 µM | > 10 µM | > 10 µM | > 10 µM | > 10 µM | – | – | – | – | –

— PubChem BioAssay (NCI)
